# Test results published in US8669249B2, “Poly (ADP-ribose) polymerase (PARP) inhibitors” (Takeda Pharmaceutical Company Limited, priority 2009, dated 2014).
# Molecular target: T1, PARP (Homo sapiens, UniProt P09874)
# T1 construct: purchased Trevigen 4684-096-K HT (kit); 4684-096-01 (PARP enzyme)
# Test: PARP ELISA (ELISA-based colorimetric PARP/Apoptosis Assay kit, Trevigen)
# Format: biochemical
# Settings: pIC50=-log10 IC50, IC50 in mol/L; inhibition of PARP catalytic activity
# Method: Inhibition Constant (IC50) from PARP ELISA
# After 10 minutes of catalysis the reaction is quenched by solvent aspiration followed by irrigation of the assay wells 4 times with phosphate buffered saline (PBS) containing 0.1% t-Octylphenoxypolyethoxyethanol (Triton® X-100). Mouse Anti-poly ADP ribose (PAR) monoclonal antibody, goat antimouse immunoglobulin G (IgG)-horse radish peroxidase (HRP) conjugate and HRP substrate are added according to the manufacture's specifications to generate a colorimetric signal proportional to PARP catalytic activity.
# T1 sequence (P09874 whole entry): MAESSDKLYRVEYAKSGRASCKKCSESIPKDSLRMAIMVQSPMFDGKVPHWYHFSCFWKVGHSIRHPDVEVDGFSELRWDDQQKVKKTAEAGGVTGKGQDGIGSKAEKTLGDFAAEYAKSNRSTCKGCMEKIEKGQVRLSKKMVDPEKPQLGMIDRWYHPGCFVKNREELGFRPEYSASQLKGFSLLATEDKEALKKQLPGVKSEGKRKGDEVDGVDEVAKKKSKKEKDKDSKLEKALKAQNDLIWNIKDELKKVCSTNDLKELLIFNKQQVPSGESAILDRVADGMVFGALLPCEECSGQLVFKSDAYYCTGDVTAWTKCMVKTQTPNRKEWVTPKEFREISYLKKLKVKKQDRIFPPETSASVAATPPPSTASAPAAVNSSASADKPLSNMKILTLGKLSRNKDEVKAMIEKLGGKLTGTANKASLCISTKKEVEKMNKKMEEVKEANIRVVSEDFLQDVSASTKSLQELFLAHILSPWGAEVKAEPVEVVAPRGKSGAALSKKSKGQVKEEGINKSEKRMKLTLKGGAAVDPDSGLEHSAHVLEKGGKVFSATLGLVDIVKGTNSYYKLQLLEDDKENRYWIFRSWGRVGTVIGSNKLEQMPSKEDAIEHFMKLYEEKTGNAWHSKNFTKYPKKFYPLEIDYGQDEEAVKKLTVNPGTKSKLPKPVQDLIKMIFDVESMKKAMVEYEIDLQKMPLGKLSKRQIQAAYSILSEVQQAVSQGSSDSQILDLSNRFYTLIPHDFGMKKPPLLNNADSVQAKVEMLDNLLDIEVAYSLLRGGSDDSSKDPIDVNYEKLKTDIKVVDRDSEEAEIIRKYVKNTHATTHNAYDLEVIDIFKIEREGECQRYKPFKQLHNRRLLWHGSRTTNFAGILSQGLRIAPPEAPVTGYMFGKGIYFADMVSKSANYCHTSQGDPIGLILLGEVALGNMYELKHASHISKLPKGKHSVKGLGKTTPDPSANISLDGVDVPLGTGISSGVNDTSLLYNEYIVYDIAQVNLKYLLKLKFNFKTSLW
row,Structure (SMILES),IC50 [µM]
1,"CCC(=O)Nc1ccc(N2CCN(Cc3ccc4c(c3)NC(=O)C(C)O4)CC2)cc1 (centres unmarked) [Compound 246, N-(4-(4-((2-Methyl-3-oxo-3,4-dihydro-2H-benzo[b][1,4]oxazin-6-yl)methyl)piperazin-1-yl)phenyl)propionamide]",≥ 0.126
2,"CC1Oc2ccc(CN3CCN(c4ccc(NC(=O)C5CC5)cc4)CC3)cc2NC1=O (centres unmarked) [Compound 247, N-(4-(4-((2-methyl-3-oxo-3,4-dihydro-2H-benzo[b][1,4]oxazin-6-yl)methyl)piperazin-1-yl)phenyl)cyclopropanecarboxamide]",≥ 0.126
3,"CC1Oc2c(Cl)cc(CN3CCN(c4ccc(C(=O)O)cc4)CC3)cc2NC1=O (centres unmarked) [Compound 307, 4-(4-((8-Chloro-2-methyl-3-oxo-3,4-dihydro-2H-benzo[b][1,4]oxazin-6-yl)methyl)piperazin-1-yl)benzoic acid]",> 0.2
4,"CC1Oc2c(F)cc(CN3CCN(c4ccc(C(=O)O)cn4)CC3)cc2NC1=O (centres unmarked) [Compound 313, 6-(4-((8-Fluoro-2-methyl-3-oxo-3,4-dihydro-2H-benzo[b][1,4]oxazin-6-yl)methyl)piperazin-1-yl)nicotinic acid]",> 0.2
5,"CC(C)NC(=O)c1ccc(N2CCN(Cc3cc(F)c4c(c3)NC(=O)C(C)O4)CC2)nc1 (centres unmarked) [Compound 316, 6-(4-((8-Fluoro-2-methyl-3-oxo-3,4-dihydro-2H-benzo[b][1,4]oxazin-6-yl)methyl)piperazin-1-yl)-N-isopropylnicotinamide]",0.1
6,"Cc1cc2c(cc1CN1CCC(c3ccc(Cl)cc3)CC1)NC(=O)C(C)O2 (centres unmarked) [Compound 322, 6-((4-(4-Chlorophenyl)piperidin-1-yl)methyl)-2,7-dimethyl-2H-benzo[b][1,4]oxazin-3(4H)-one]",> 0.2

# Next, values leading:
row,IC50 [µM],Structure (SMILES)
1,≥ 0.126,"CC1Oc2c(Cl)cc(CN3CCC(c4ccc(Cl)cc4)CC3)cc2NC1=O (centres unmarked) [Compound 165, 8-Chloro-6-((4-(4-chlorophenyl)piperidin-1-yl)methyl)-2-methyl-2H-benzo[b][1,4]oxazin-3(4H)-one]"
2,≥ 0.126,"CC(=O)Nc1ccc(N2CCN(Cc3ccc4c(c3)NC(=O)C(C)O4)CC2)cc1 (centres unmarked) [Compound 245, N-(4-(4-((2-Methyl-3-oxo-3,4-dihydro-2H-benzo[b][1,4]oxazin-6-yl)methyl)piperazin-1-yl)phenyl)acetamide]"
3,≥ 0.126,"CC1Oc2ccc(CN3CCN(c4ccc(NC(=O)c5ccccc5)cc4)CC3)cc2NC1=O (centres unmarked) [Compound 248, N-(4-(4-((2-Methyl-3-oxo-3,4-dihydro-2H-benzo[b][1,4]oxazin-6-yl)methyl)piperazin-1-yl)phenyl)benzamide]"
4,0.0316,"CC(C)NC(=O)c1ccc(N2CCN(Cc3cc(Cl)c4c(c3)NC(=O)C(C)O4)CC2)cc1 (centres unmarked) [Compound 310, 4-(4-((8-Chloro-2-methyl-3-oxo-3,4-dihydro-2H-benzo[b][1,4]oxazin-6-yl)methyl)piperazin-1-yl)-N-isopropylbenzamide]"
5,0.0398,"CC1Oc2c(Cl)cc(CN3CCN(c4ccc(C(=O)NC5CC5)cc4)CC3)cc2NC1=O (centres unmarked) [Compound 311, 4-(4-((8-Chloro-2-methyl-3-oxo-3,4-dihydro-2H-benzo[b][1,4]oxazin-6-yl)methyl)piperazin-1-yl)-N-cyclopropylbenzamide]"
6,> 0.2,"CCOC(=O)c1ccc(N2CCN(Cc3cc(F)c4c(c3)NC(=O)C(C)O4)CC2)nc1 (centres unmarked) [Compound 312, Ethyl 6-(4-((8-fluoro-2-methyl-3-oxo-3,4-dihydro-2H-benzo[b][1,4]oxazin-6-yl)methyl)piperazin-1-yl)nicotinate]"
7,0.0501,"CCNC(=O)c1ccc(N2CCN(Cc3cc(F)c4c(c3)NC(=O)C(C)O4)CC2)nc1 (centres unmarked) [Compound 315, N-Ethyl-6-(4-((8-fluoro-2-methyl-3-oxo-3,4-dihydro-2H-benzo[b][1,4]oxazin-6-yl)methyl)piperazin-1-yl)nicotinamide]"
8,0.0501,"CC1Oc2c(F)cc(CN3CCN(c4ccc(C(=O)NC5CC5)cn4)CC3)cc2NC1=O (centres unmarked) [Compound 317, N-Cyclopropyl-6-(4-((8-fluoro-2-methyl-3-oxo-3,4-dihydro-2H-benzo[b][1,4]oxazin-6-yl)methyl)piperazin-1-yl)nicotinamide]"

# Molecular target: T2, catalytic domain of Human PARP (Homo sapiens, UniProt P09874)
# T2 construct: The catalytic domain of Human PARP was cloned and prepared; made in house
# Test: Biacore surface plasmon resonance affinity assay
# Format: binding
# Settings: pKD=-log10 KD, KD in mol/L; Biacore T100, 25° C.; read-out: pKD (converted)
# Method in brief: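 Binding at 25° C on Biacore T100: 1 min compound association then 5 min dissociation (50 μL/min) over immobilized PARP catalytic domain, buffer HBS-P plus 1% DMSO, 0.5 mM TCEP, 5 mM MgCl2, 2-fold dilution series. KD derived as koff/kon from fitted association and dissociation phases.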
# T2 sequence (P09874 788-1014 limits assumed): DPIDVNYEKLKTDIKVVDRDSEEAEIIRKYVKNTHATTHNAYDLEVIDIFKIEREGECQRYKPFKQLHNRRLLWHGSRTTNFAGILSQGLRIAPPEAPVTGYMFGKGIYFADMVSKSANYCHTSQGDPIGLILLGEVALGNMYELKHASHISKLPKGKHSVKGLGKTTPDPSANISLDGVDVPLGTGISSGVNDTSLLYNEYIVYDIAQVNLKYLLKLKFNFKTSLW
row,Structure (SMILES),Kd [µM]
1,"CCC1Oc2ccc(CN3CC=C(c4ccc(Cl)cc4)CC3)cc2NC1=O (centres unmarked) [Compound 193, 6-((4-(4-Chlorophenyl)-5,6-dihydropyridin-1(2H)-yl)methyl)-2-ethyl-2H-benzo[b][1,4]oxazin-3(4H)-one]",≥ 100
2,"CCC1Oc2ccc(CN3CCC(c4ccc(Cl)cc4)CC3)cc2NC1=O (centres unmarked) [Compound 194, 6-((4-(4-Chlorophenyl)piperidin-1-yl)methyl)-2-ethyl-2H-benzo[b][1,4]oxazin-3(4H)-one]",≥ 100
3,"CCC1Oc2ccc(CN3CCC(c4ccccc4N)CC3)cc2NC1=O (centres unmarked) [Compound 198, 6-((4-(2-Aminophenyl)piperidin-1-yl)methyl)-2-ethyl-2H-benzo[b][1,4]oxazin-3(4H)-one]",12.6 to 79.4
4,"CC1Oc2cc(CN3CC=C(c4ccc(Cl)cc4)CC3)ccc2NC1=O (centres unmarked) [Compound 199, 7-((4-(4-Chlorophenyl)-5,6-dihydropyridin-1(2H)-yl)methyl)-2-methyl-2H-benzo[b][1,4]oxazin-3(4H)-one]",≥ 100
5,"CC1Oc2cc(CN3CC=C(c4ccc(F)cc4)CC3)ccc2NC1=O (centres unmarked) [Compound 201, 7-((4-(4-Fluorophenyl)-5,6-dihydropyridin-1(2H)-yl)methyl)-2-methyl-2H-benzo[b][1,4]oxazin-3(4H)-one]",≥ 100
6,"CC1Oc2cc(CN3CCN(c4ccncc4)CC3)ccc2NC1=O (centres unmarked) [Compound 202, 2-Methyl-7-((4-(pyridin-4-yl)piperazin-1-yl)methyl)-2H-benzo[b][1,4]oxazin-3(4H)-one]",≥ 100
7,"CC1Oc2cc(CN3CCC(c4ccccc4N)CC3)ccc2NC1=O (centres unmarked) [Compound 204, 7-((4-(2-aminophenyl)piperidin-1-yl)methyl)-2-methyl-2H-benzo[b][1,4]oxazin-3(4H)-one]",12.6 to 79.4
8,"CC1Oc2cc(CN3CCN(c4ccccc4O)CC3)ccc2NC1=O (centres unmarked) [Compound 209, 7-((4-(2-Hydroxyphenyl)piperazin-1-yl)methyl)-2-methyl-2H-benzo[b][1,4]oxazin-3(4H)-one]",12.6 to 79.4
9,"CC1Oc2cc(CN3CCC(c4ccc(C(=O)O)cc4)CC3)ccc2NC1=O (centres unmarked) [Compound 210, 4-(1-((2-Methyl-3-oxo-3,4-dihydro-2H-benzo[b][1,4]oxazin-7-yl)methyl)piperidin-4-yl)benzoic acid]",12.6 to 79.4
10,"CC1Oc2ccc(CN3CCC(c4ccc(C(=O)O)cc4)CC3)cc2NC1=O (centres unmarked) [Compound 216, 4-(1-((2-Methyl-3-oxo-3,4-dihydro-2H-benzo[b][1,4]oxazin-6-yl)methyl)piperidin-4-yl)benzoic acid]",1.26 to 10

# Results, then the compound that gave them:
row,Kd [µM],Structure (SMILES)
1,> 10,"CNC(=O)OCCCc1ccc2c(c1)NC(=O)C(C)O2 (centres unmarked) [Compound 189, 3-(2-Methyl-3-oxo-3,4-dihydro-2H-benzo[b][1,4]oxazin-6-yl)propyl methylcarbamate]"
2,≥ 100,"CCC1Oc2ccc(CN3CCN(c4ccncc4)CC3)cc2NC1=O (centres unmarked) [Compound 195, 2-Ethyl-6-((4-(pyridin-4-yl)piperazin-1-yl)methyl)-2H-benzo[b][1,4]oxazin-3(4H)-one]"
3,≥ 100,"CCC1Oc2ccc(CN3CCC(c4nc5ccccc5[nH]4)CC3)cc2NC1=O (centres unmarked) [Compound 196, 6-((4-(1H-Benzo[d]imidazol-2-yl)piperidin-1-yl)methyl)-2-ethyl-2H-benzo[b][1,4]oxazin-3(4H)-one]"
4,12.6 to 79.4,"CC1Oc2cc(CN3CCC(c4ccc(Cl)cc4)CC3)ccc2NC1=O (centres unmarked) [Compound 200, 7-((4-(4-Chlorophenyl)piperidin-1-yl)methyl)-2-methyl-2H-benzo[b][1,4]oxazin-3(4H)-one]"
5,≥ 100,"CC1Oc2cc(CN3CCC(c4nc5ccccc5[nH]4)CC3)ccc2NC1=O (centres unmarked) [Compound 203, 7-((4-(1H-Benzo[d]imidazol-2-yl)piperidin-1-yl)methyl)-2-methyl-2H-benzo[b][1,4]oxazin-3(4H)-one]"
6,≥ 100,"CC1Oc2ccc(CN3CCC(c4ccccc4N)CC3)cc2NC1=O (centres unmarked) [Compound 211, 6-((4-(2-Aminophenyl)piperidin-1-yl)methyl)-2-methyl-2H-benzo[b][1,4]oxazin-3(4H)-one]"
7,≥ 100,"COC(=O)c1cccc(C2CCN(Cc3ccc4c(c3)NC(=O)C(C)O4)CC2)c1 (centres unmarked) [Compound 212, Methyl 3-(1-((2-methyl-3-oxo-3,4-dihydro-2H-benzo[b][1,4]oxazin-6-yl)methyl)piperidin-4-yl)benzoate]"
8,≥ 100,"CC1Oc2ccc(CN3CCC(c4cccc(C(=O)O)c4)CC3)cc2NC1=O (centres unmarked) [Compound 215, 3-(1-((2-Methyl-3-oxo-3,4-dihydro-2H-benzo[b][1,4]oxazin-6-yl)methyl)piperidin-4-yl)benzoic acid]"
9,1.26 to 10,"CC1Oc2ccc(CN3CCN(c4cccc(C(F)(F)F)c4)CC3)cc2NC1=O (centres unmarked) [Compound 221, 2-Methyl-6-((4-(3-(trifluoromethyl)phenyl)piperazin-1-yl)methyl)-2H-benzo[b][1,4]oxazin-3(4H)-one]"
10,≤ 0.01,"CC1Oc2ccc(CN3Cc4ccc(F)cc4C3)cc2NC1=O (centres unmarked) [Compound 241, 6-((5-Fluoroisoindolin-2-yl)methyl)-2-methyl-2H-benzo[b][1,4]oxazin-3(4H)-one]"
11,1.26 to 10,"CC(=O)Nc1ccc2c(c1)CN(Cc1ccc3c(c1)NC(=O)C(C)O3)C2 (centres unmarked) [Compound 242, N-(2-((2-Methyl-3-oxo-3,4-dihydro-2H-benzo[b][1,4]oxazin-6-yl)methyl)isoindolin-5-yl)acetamide]"
